Patent US10344002B2, “Compositions and methods for treating metabolic disorders” (NuSirt Sciences, Inc., priority 2016, dated 2019)

How the values were obtained:
[1] = tested on: C. elegans; test: Lifespan of C. elegans under normal and mild oxidative stress (Paraquat) conditions; type: in vivo; details: for increase of median lifespan: 10 nM and 100 nM, p<0.0002
Description: Lifespan Protocol: Wild-type worms were synchronized and hatched L1s were transferred to normal NGM agar plates until L4/young adult stage (3 days). 100 synchronized stage L4 worms per group were picked and placed on NGM agar plates seeded with E. coli strain OP-50 (=day 1 of study). Paraquat was added in the indicated concentration to the agar plates, the Compound 2 concentrations were dissolved in the E. coli suspension. The worms were maintained at 21° C. throughout the duration of the study. Live worms were placed on new plates every day to eliminate progeny.
Statistics: For the statistical analysis of the lifespan study with C. elegans, data were analyzed via Kaplan-Meier survival curves and statistical significance between curves was determined with the Log-rank (Mantel_Cox) test using Prism 6 (GraphPad Software, La Jolla Calif., USA, www.graphpad.com).

[2] = tested on: C2C12 muscle cells; test: Fatty acid oxidation (oxygen consumption rate, Seahorse XF-24) in C2C12 muscle cells; type: cell-based; details: C2C12 muscle cells
Description: (§1) Cell Culture: C2C12 muscle cells were seeded with 40,000 cells per well on Seahorse tissue culture plates in Dulbecco's modified eagle's medium (DMEM) containing 10% fetal bovine serum (FBS) and antibiotics (1% penicillin-streptomycin) at 37° C. in 5% CO2. After reaching confluency (24 hours), cells were induced to differentiate with DMEM containing 2% Horse Serum for 3 to 4 days until myotubes were fully formed. Cells were then treated with indicated concentration of Compound 2 for 24 hours.
(§2) Compound 2 was dissolved in 100% DMSO to a stock concentration of 100 mM. This stock was further diluted to indicated concentrations in DMEM media.
Fatty acid oxidation: Baseline and palmitate-stimulated oxygen consumption rates were measured with XF-24 analyzer (Seahorse Bioscience (now part of Agilent Technologies), MA, USA). After 24 hour treatment with Compound 2 of differentiated C2C12 muscle cells, cells were washed twice with non-buffered carbonate-free pH 7.4 low glucose (2.5 mM) DMEM containing carnitine (0.5 mM), equilibrated with 600 μl of the same media in a non-CO2 incubator for 45 minutes, and then inserted into the instrument for 15 minutes of further equilibration, followed by O2 consumption measurement. Three successive baseline measures at five-minute intervals were taken prior to injection of palmitate (200 μM final concentration). Sets of three five-minute intervals followed by 10-minute time delay were continued over a 2 to 3 hour period after palmitate injection. The area under the curve of 02 consumption change from baseline for each sample was then calculated and used for subsequent analysis. Data are represented as mean±SD for each treatment group.

[3] = tested on: C. elegans; test: Lipid accumulation (Oil Red Staining) in C. elegans; type: in vivo; details: for lipid accumulation, fold change of control (FIG. 12): 3 days, absorbance normalized to worm number
Description: C. elegans culture: Synchronized L1 wild-type worms were transferred to NGM agar plates with the following treatments until adulthood (3 days): 1. control NGM plates, 2. NGM plate with 10 nM Compound 2 added to E. coli suspension, 3. NGM plate with 100 nM Compound 2 added to E. coli suspension.
Lipid accumulation (Oil Red Staining): Worms were washed off the plate with 2×5 ml PBS and collected in centrifuge tubes. The tubes were centrifuged at 1000 g for 30 seconds, then the supernatant was removed and the worm pellet was washed again with 5 ml PBS. Then the supernatant was discarded except approximately 400 ul, to which 200 ul of 10% paraformaldehyde was added and then gently rocked for 60 minutes at room temperature. To remove the paraformaldehyde, worms were centrifuged at 1500 g for 30 sec, then washed 1× with 5 ml PBS, centrifuged and supernatant removed except 400 ul, to which 600 ul of 100% isopropanol was added and mixed by inverting the tube and incubated for 15 minutes at room temperature. After centrifugation, the isopropanol was removed, then 1 ml of 60% filtered OilRed (4 vol ddH2O and 6 vol of OilRed stock (OilRed stock: dilute 0.35 g OilRed O (Sigma Cat #0-0625, FW 408.5) in 100 ml 100% isopropanol, stirred overnight, then filtered (0.2 um) and stored at room temperature), let stand for 15 to 20 min and filter with 0.2 um) was added. Worms were rotated on shaker overnight at room temperature and protected from light. Next day, the worms were centrifuged at 1200 g for 30 seconds, the dye was removed, and worms were washed 4 times with ddH2O. At last washing step, 2 ml of ddH2O was added and worms were counted under microscope in 3×20 ul drops. The worm number was multiplied by 100 to calculate the total worm number for normalization of the absorbance data. Then worm solution was centrifuged again, supernatant removed and 300 ul of 100% isopropanol was added to elute the OilRed. 100 ul aliquots of OilRed-isopropanol in transferred to 96-well plate and the absorbance was measured at 500 nm.

[4] = tested on: acetyl-CoA carboxylase (ACC); test: Western blot, phosphorylated/total acetyl-CoA carboxylase in C2C12 muscle cells; type: cell-based; details: for increase in the ratio of phosphorylated to total ACC: 24 h; for ratio of phosphorylated/total ACC (FIG. 6B): 24 hours, control approximately 1.25
Description: as §1, with “seeded with 400,000 cells per” for “seeded with 40,000 cells per”, “well on 6-well tissue culture” for “well on Seahorse tissue culture”, “Serum for 5 to 6” for “Serum for 3 to 4”, “5 to 6 days until” for “3 to 4 days until”, “2 for 4 and 24 hours.” for “2 for 24 hours.”
as §2
Western blots: Phospho-AMPK, AMPK, Phospho-ACC, ACC antibodies were obtained from Cell Signaling (Danvers, Mass.). Sir2 antibody was obtained from MyBiosource (San Diego, Calif.). Protein levels of cell extracts were measured by BCA kit (Thermo Scientific, Pittsburgh, Pa.). For Western blot, 10-50 μg protein was resolved on 4-15% gradient polyacrylaminde gels (Criterion precast gel, Bio-Rad Laboratories, Hercules, Calif.), transferred to either PVDF or nitrocellulose membranes, incubated in blocking buffer (3% BSA or 5% non-fat dry milk in TBS) and then incubated with primary antibody (1:1000 dilution), washed and incubated with horseradish peroxidase- or fluorescence-conjugated secondary antibody (1:10000 dilution). Visualization was conducted using BioRad ChemiDoc instrumentation and software (Bio-Rad Laboratories, Hercules, Calif.) and band intensity was assessed using Image Lab 4.0 with correction for background and loading controls.

[5] = mild oxidative stress (500 uM Paraquat)

CC(C)C[C@@H]1NC(N=C(N)N)=NC1=O [Compound 2]
increase of maximum lifespan [1, 5]: 14%
increase of median lifespan [1, 5]: 30%
increase of median lifespan ([1]; normal conditions): 18%
increase of the baseline oxygen consumption rate (area under the curve) ([2]; 10 nM, 24 hour treatment, prior to palmitate injection, p=0.002): 60%
further increase of palmitate-induced oxygen consumption vs control ([2]; after palmitate injection (200 μM), p=0.002): ~75%
effect on baseline and palmitate-stimulated oxygen consumption rate (OCR) ([2]; concentrations in excess of luM (not shown)): no effect
dose-response of OCR effects (area under the curve) ([2]; dose-responsive only at 0-10 nM): plateaued between 10 and 100 nM
dose-response on baseline and palmitate-stimulated OCR ([2]; higher concentrations (>100 nM)): diminishing responses
lipid accumulation, fold change of control (FIG. 12) ([3]; 10 nM): approximately 0.45 fold change
lipid accumulation, microscopic images (FIG. 13B) ([3]; 100 nM): significant reduction
lipid accumulation, fold change of control (FIG. 12) ([3]; 100 nM): approximately 0.35 fold change
reduction in lipid accumulation ([3]; 100 nM, L1 stage to adulthood (3 days), p<0.05): 60%
increase in the ratio of phosphorylated to total ACC ([4]; 10 nM): 46%
ratio of phosphorylated/total ACC (FIG. 6B) ([4]; 10 nM): approximately 1.8
increase in the ratio of phosphorylated to total ACC ([4]; 100 nM): 21%
ratio of phosphorylated/total ACC (FIG. 6B) ([4]; 100 nM): approximately 1.52
